Results reported in the NIST ThermoML archive (doi:10.1016/j.tca.2005.11.005).
Numbers after ± are expanded uncertainties.

Assay: molar heat capacity at constant pressure; xn = mol fraction of the nth substance listed
Conditions: 101 kPa, Crystal, Small sample (50 mg) DSC

[Ce+4].[O-2].[O-2] [ceric oxide] + [O-2].[O-2].[U+4]
molar heat capacity at constant pressure [J/K/mol]
Conditions	298 K	300 K	400 K	500 K	600 K	700 K	800 K
x2 = 0	62.6 ± 1.3	62.7 ± 1.3	68.8 ± 1.4	73 ± 1.5	76.5 ± 1.5	78.6 ± 1.6	79.3 ± 1.6
x2 = 0.197	62.8 ± 1.3	64 ± 1.3	73.3 ± 1.5	81.2 ± 1.6	84.6 ± 1.7	84.5 ± 1.7	85.2 ± 1.7
x2 = 0.491	64.2 ± 1.3	64.8 ± 1.3	76.8 ± 1.5	85.9 ± 1.7	89.2 ± 1.8	89.6 ± 1.8	88.3 ± 1.8
x2 = 0.809	70.1 ± 1.4	70.4 ± 1.4	79.7 ± 1.6	86 ± 1.7	88.9 ± 1.8	90.3 ± 1.8	92 ± 1.8

[O-2].[O-2].[U+4] [uranium dioxide] + [Ce+4].[O-2].[O-2]
x1 = 1
Conditions	molar heat capacity at constant pressure [J/K/mol]
298 K	64 ± 1.3
300 K	64.1 ± 1.3
400 K	72.7 ± 1.5
500 K	77.5 ± 1.6
600 K	80.4 ± 1.6
700 K	82.6 ± 1.7
800 K	85.9 ± 1.7
